According to PMC11841054 (Journal of Bacteriology, 2025):

Assays:
GlnA3Mt = molecular target: T1, GlnA3Mt (Mycobacterium tuberculosis, UniProt O07752)
T1 construct: gene glnA3

GlnA3Sc = molecular target: T2, GlnA3Sc (Streptomyces coelicolor, UniProt Q9KZC7); assay: GS activity assay, phosphate release; type: biochemical; conditions: 50 mM substrate; glutamate and ATP co-substrates
T2 construct: gene glnA3; His-tagged (pYT/his-glnA3, pYT9 derivative) from E. coli BL21
T2 sequence (Q9KZC7 whole entry): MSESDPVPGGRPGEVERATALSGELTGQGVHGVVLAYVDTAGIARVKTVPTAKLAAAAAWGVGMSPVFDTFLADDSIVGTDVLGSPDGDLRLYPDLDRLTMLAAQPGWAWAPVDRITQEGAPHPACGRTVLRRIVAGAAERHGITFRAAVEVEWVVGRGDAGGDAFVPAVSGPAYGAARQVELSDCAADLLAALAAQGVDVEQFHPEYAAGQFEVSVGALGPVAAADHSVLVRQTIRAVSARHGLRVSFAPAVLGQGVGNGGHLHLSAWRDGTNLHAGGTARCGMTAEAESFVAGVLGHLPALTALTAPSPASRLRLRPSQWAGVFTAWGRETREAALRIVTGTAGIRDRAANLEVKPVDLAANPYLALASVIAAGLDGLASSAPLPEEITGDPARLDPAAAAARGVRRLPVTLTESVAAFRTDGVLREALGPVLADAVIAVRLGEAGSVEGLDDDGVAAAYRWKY

T1 sequence (O07752 1-450): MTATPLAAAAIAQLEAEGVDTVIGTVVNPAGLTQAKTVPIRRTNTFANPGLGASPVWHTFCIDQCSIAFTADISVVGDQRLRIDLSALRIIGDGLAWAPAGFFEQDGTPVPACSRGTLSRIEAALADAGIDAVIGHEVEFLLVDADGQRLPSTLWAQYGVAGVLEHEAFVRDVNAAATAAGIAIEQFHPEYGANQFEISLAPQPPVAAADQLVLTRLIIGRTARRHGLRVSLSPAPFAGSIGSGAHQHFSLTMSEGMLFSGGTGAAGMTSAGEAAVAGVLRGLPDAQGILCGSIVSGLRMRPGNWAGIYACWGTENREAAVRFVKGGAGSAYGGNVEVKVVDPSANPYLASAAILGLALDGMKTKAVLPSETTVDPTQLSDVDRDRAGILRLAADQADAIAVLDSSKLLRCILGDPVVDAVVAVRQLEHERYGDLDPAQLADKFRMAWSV

Row | Structure (SMILES) | GS activity assay, phosphate release; HPLC/ESI-MS of gamma-glutamylspermidine (GlnA3Mt) | GS activity assay, phosphate release (GlnA3Sc)
1 | NCCCCNCCCN [spermidine] | the highest activity was observed with spermine and spermidine | possesses the highest turnover rate when using spermine or spermidine as substrates
2 | NCCCNCCCCNCCCN [spermine] |  | possesses the highest turnover rate when using spermine or spermidine as substrates
